The source of these data is publication PMC8887546, “Design and Synthesis of Brain Penetrant Glycopeptide Analogues of PACAP With Neuroprotective Potential for Traumatic Brain Injury and Parkinsonism” (Frontiers in drug discovery, 2022).

For assay [1], the system named is C57BL/6 mice, diffuse TBI. Put plainly: Rotarod after TBI. To be noted: 10 mg/kg i.p. 30 min prior to TBI, 2, 5 and 7 DPI. It counts as in vivo, mouse. The protocol:
(§1) 30 min prior to TBI or sham injury, mice were randomly assigned to a therapeutic group and received an intraperitoneal injection of 2LS80Mel (10 mg/kg) or sterile saline (0.25 ml). Groups were as follows: TBI-2LS80Mel n = 17; TBI-vehicle n = 17; sham n = 22 (vehicle n = 11, 2LS80Mel n = 11).
For injury induction 24 h post-surgery, mice were re-anesthetized with 5% isoflurane delivered for 3 min. The cap was removed from the injury-hub assembly and the dura was visually inspected through the hub to ensure it was intact with no debris. […] Injured mice were monitored for presence of a forearm fencing response and righting reflex times were recorded as indicators of injury severity ([Hosseini and Lifshitz, 2009]). […] After spontaneously righting, mice were placed in a heated recovery cage and monitored until they were ambulatory (approximately 5–15 min) before being returned to their piezoelectric sleep cage (see below). […]
Sensorimotor function was assessed using the Rotor-Rod system (San Diego Instruments) as we have previously published ([Rowe et al., 2018]). […] Following acclimation, mice were trained over three consecutive days prior to surgery/injury and the last training session was recorded as baseline. […]

Assay [2] relates to C57BL/6 mice, diffuse TBI. Put plainly: Plasma cytokine measurement after TBI. It counts as in vivo, mouse. The note with it: 10 mg/kg i.p. 30 min prior to TBI. The protocol:
as §1
For injury induction 24 h post-surgery, mice were re-anesthetized with 5% isoflurane delivered for 3 min. The cap was removed from the injury-hub assembly and the dura was visually inspected through the hub to ensure it was intact with no debris. The hub was then filled with normal saline and attached to an extension tube connected to the male end of the fluid percussion device (Custom Design and Fabrication, Virginia Commonwealth University, Richmond, VA). An injury of moderate severity for our injury model (1.4 atm) was administered by releasing the pendulum onto the fluid-filled cylinder following the return of a toe-pinch response. Sham mice underwent the same procedure except the pendulum was not released. Injured mice were monitored for presence of a forearm fencing response and righting reflex times were recorded as indicators of injury severity ([Hosseini and Lifshitz, 2009]). The righting reflex time is the total time from the initial impact until the mouse spontaneously rights itself from a supine position. The fencing response is a tonic posturing characterized by extension and flexion of opposite arms that has been validated as an overt indicator of injury severity ([Hosseini and Lifshitz, 2009]). The injury hub was removed, and the brain was inspected for uniform herniation and integrity of the dura. The incision was cleaned with saline and closed using sutures. Moderately brain-injured mice had righting reflex recovery times greater than 4 min and a positive fencing response. Righting reflex times for TBI-2LS80Mel mice were 477.13 ± 83.13 s and the righting reflex times for TBI-vehicle mice were 417.05 ± 107.47 s. […] After spontaneously righting, mice were placed in a heated recovery cage and monitored until they were ambulatory (approximately 5–15 min) before being returned to their piezoelectric sleep cage (see below). […]
Approximately 75 μl of blood were centrifuged to collect approximately 40 μl of plasma from each animal at 2 and 14 days post-injury ([Saber et al., 2020]). Multiplex cytokine assays (MILLIPLEX MAP Mouse Cytokine/Chemokine Magnetic Bead Panel, Millipore Sigma, Burlington, MA) quantified interleukin (IL)-1β, IL-6, and tumor necrosis factor (TNF)-α in peripheral blood. […] Fluorescent intensity was measured on a Bio-Plex® 200 system (Bio-Rad Laboratories, Hercules, CA) and corresponded to the concentration of each analyte in plasma samples. Duplicate values were averaged and analyzed between groups. […]

The next assay addresses T1, human VPAC1 receptor (Homo sapiens, UniProt P32241).
T1 construct: expressed in transfected cells; host or cells: CHO cells (G418 selection)
T1 sequence (P32241 31-457): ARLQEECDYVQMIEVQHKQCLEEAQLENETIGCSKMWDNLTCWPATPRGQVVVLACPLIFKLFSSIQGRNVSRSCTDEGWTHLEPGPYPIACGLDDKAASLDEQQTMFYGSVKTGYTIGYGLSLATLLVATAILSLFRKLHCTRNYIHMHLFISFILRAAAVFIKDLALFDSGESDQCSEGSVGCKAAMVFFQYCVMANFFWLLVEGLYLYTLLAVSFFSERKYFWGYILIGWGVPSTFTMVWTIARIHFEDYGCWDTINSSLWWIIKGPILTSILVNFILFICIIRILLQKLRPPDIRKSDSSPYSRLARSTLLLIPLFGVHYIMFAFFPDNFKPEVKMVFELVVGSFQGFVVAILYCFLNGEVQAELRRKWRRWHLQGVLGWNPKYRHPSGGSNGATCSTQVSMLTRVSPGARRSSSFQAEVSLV
Nature of the assay: cAMP stimulation in CHO cells expressing VPAC1. It counts as cell-based.

For the compound `CC[C@H](C)[C@H](NC(=O)CNC(=O)[C@H](CC(=O)O)NC(=O)[C@H](CO)NC(=O)[C@@H](N)Cc1c[nH]cn1)C(=O)N[C@@H](Cc1ccccc1)C(=O)N[C@H](C(=O)N[C@@H](CC(=O)O)C(=O)N[C@@H](CO)C(=O)N[C@@H](Cc1ccc(O)cc1)C(=O)N[C@@H](CO)C(=O)N[C@@H](CCCNC(=N)N)C(=O)N[C@@H](Cc1ccc(O)cc1)C(=O)N[C@@H](CCCNC(=N)N)C(=O)N[C@@H](CCCCN)C(=O)N[C@@H](CCC(N)=O)C(=O)N[C@@H](CC(C)C)C(=O)N[C@@H](C)C(=O)N[C@H](C(=O)N[C@@H](CCCCN)C(=O)N[C@@H](CCCCN)C(=O)N[C@@H](Cc1ccc(O)cc1)C(=O)N[C@@H](CC(C)C)C(=O)N[C@@H](C)C(=O)N[C@@H](C)C(=O)N[C@H](C(=O)N[C@@H](CC(C)C)C(=O)N[C@@H](CO[C@@H]1O[C@H](CO[C@H]2O[C@H](CO)[C@H](O)[C@H](O)[C@H]2O)[C@@H](O)[C@H](O)[C@H]1O)C(N)=O)C(C)C)C(C)C)[C@@H](C)O` [Compound 2LS80Mel], in assay [1], the “Rotarod latency to fall” value is “comparable to uninjured shams at all time points post-injury”. Also, in assay [2] (2 DPI), the “Plasma IL-1β” value is “no differences”, the “Plasma IL-6” value is “no differences” and the “Plasma TNF-α” value was “no differences”. For the same compound, the “Peripheral cytokines (IL-1β, IL-6, TNF-α)” value in assay [2] (14 DPI, data not shown) was “no differences”.
With `[2H]C([2H])([2H])C([2H])(C([2H])([2H])[2H])[C@]([2H])(NC(=O)[C@H](C)NC(=O)[C@H](C)NC(=O)[C@H](CC(C)C)NC(=O)[C@H](Cc1ccc(O)cc1)NC(=O)[C@H](CCCCN)NC(=O)[C@H](CCCCN)NC(=O)[C@@]([2H])(NC(=O)[C@H](C)NC(=O)[C@H](CC(C)C)NC(=O)[C@H](CCC(N)=O)NC(=O)[C@H](CCCCN)NC(=O)[C@H](CCCNC(=N)N)NC(=O)[C@H](Cc1ccc(O)cc1)NC(=O)[C@H](CCCNC(=N)N)NC(=O)[C@H](CO)NC(=O)[C@H](Cc1ccc(O)cc1)NC(=O)[C@H](CO)NC(=O)[C@H](CC(=O)O)NC(=O)[C@@H](NC(=O)[C@H](Cc1ccccc1)NC(=O)[C@@H](NC(=O)CNC(=O)[C@H](CC(=O)O)NC(=O)[C@H](CO)NC(=O)[C@@H](N)Cc1c[nH]cn1)[C@@H](C)CC)[C@@H](C)O)C([2H])(C([2H])([2H])[2H])C([2H])([2H])[2H])C(=O)N[C@@H](CC(C)C)C(=O)N[C@@H](CO[C@@H]1O[C@H](CO)[C@@H](O[C@@H]2O[C@H](CO)[C@H](O)[C@H](O)[C@H]2O)[C@H](O)[C@H]1O)C(N)=O` [Compound 2LS98Lac], the Emax at human VPAC1 receptor (CHO, read-out: VPAC1 Emax) worked out at 101%. Also, the “Receptor selectivity ratio VPAC1/PAC1” value at human VPAC1 receptor (ratio of cAMP EC50 values) came to 0.63. The EC50 at human VPAC1 receptor (read-out: VPAC1 EC50) was determined as 450 pM.

In general, Emax refers to the size of the effect at its maximum, as opposed to the concentration needed. The EC50 is the concentration needed to bring the measured effect to its halfway point.
